According to the NIST ThermoML archive (doi:10.1021/je800325d):

Assays:
[1] = 101.33 kPa, Liquid; for viscosity: Capillary tube (Ostwald / Ubbelohde) method
[2] = refractive index (Na D-line) (dimensionless); settings: 101.33 kPa, Liquid, Standard Abbe refractometry
[3] = xn = mol fraction of the nth substance listed; settings: 101 kPa, Liquid
[4] = refractive index (Na D-line) (dimensionless); xn = mol fraction of the nth substance listed; settings: 101 kPa, Liquid, Standard Abbe refractometry

Cc1ccccc1C [1,2-dimethylbenzene]
Settings | refractive index, [2] | viscosity, [1] [mPa·s]
303.15 K | 1.5001 | 0.695
313.15 K | 1.4981 | 0.621

[1], Pycnometric method
Settings | mass density [kg/m3]
303.15 K | 871.5
313.15 K | 863.3

Cc1cccc(C)c1 [1,3-dimethylbenzene]
Settings | refractive index, [2] | viscosity, [1] [mPa·s]
303.15 K | 1.492 | 0.557
313.15 K | 1.4901 | 0.508

[1], Pycnometric method
Settings | mass density [kg/m3]
303.15 K | 855.3
313.15 K | 847.1

Cc1ccc(C)cc1 [1,4-dimethylbenzene]
Settings | refractive index, [2] | viscosity, [1] [mPa·s]
303.15 K | 1.4911 | 0.566
313.15 K | 1.4902 | 0.517

[1], Pycnometric method
Settings | mass density [kg/m3]
303.15 K | 852.1
313.15 K | 843.5

CC(=O)OCCC(C)C [3-methylbutyl ethanoate]
Settings | refractive index, [2] | viscosity, [1] [mPa·s]
303.15 K | 1.3959 | 0.741
313.15 K | 1.3945 | 0.649

[1], Pycnometric method
Settings | mass density [kg/m3]
303.15 K | 862.3
313.15 K | 852.8

CCc1ccccc1 [ethylbenzene]
Settings | mass density, [1] [kg/m3] | refractive index, [2] | viscosity, [1] [mPa·s]
303.15 K | 857.6 | 1.491 | 0.597
313.15 K | 849.2 | 1.4891 | 0.538

COC(=O)c1ccccc1 [methyl benzoate]
Settings | refractive index, [2] | viscosity, [1] [mPa·s]
303.15 K | 1.5127 | 1.679
313.15 K | 1.5083 | 1.414

[1], Pycnometric method
Settings | mass density [kg/m3]
303.15 K | 1078.8
313.15 K | 1069.2

COC(=O)c1ccccc1 [methyl benzoate] + Cc1ccccc1C
Settings | mass density, [3] [kg/m3] | refractive index, [4] | viscosity, [3] [mPa·s]
303.15 K, x1 = 0.0879 | 890.4 | 1.5006 | 0.757
303.15 K, x1 = 0.1997 | 911.4 | 1.5007 | 0.842
303.15 K, x1 = 0.3008 | 931.3 | 1.501 | 0.908
303.15 K, x1 = 0.3925 | 951.2 | 1.5012 | 0.975
303.15 K, x1 = 0.4928 | 970.9 | 1.5016 | 1.06
303.15 K, x1 = 0.5939 | 991.7 | 1.5022 | 1.16
303.15 K, x1 = 0.6852 | 1009.5 | 1.5055 | 1.252
303.15 K, x1 = 0.798 | 1031.6 | 1.5083 | 1.395
303.15 K, x1 = 0.8981 | 1052.1 | 1.511 | 1.506
303.15 K, x1 = 0.9485 | 1056.3 | 1.5115 | 1.593
313.15 K, x1 = 0.0879 | 882.3 | 1.497 | 0.664
313.15 K, x1 = 0.1997 | 902.1 | 1.4971 | 0.72
313.15 K, x1 = 0.3008 | 922.8 | 1.498 | 0.785
313.15 K, x1 = 0.3925 | 942.6 | 1.4996 | 0.836
313.15 K, x1 = 0.4928 | 962.4 | 1.5002 | 0.91
313.15 K, x1 = 0.5939 | 983 | 1.5017 | 0.992
313.15 K, x1 = 0.6852 | 1000.7 | 1.5038 | 1.07
313.15 K, x1 = 0.798 | 1022.5 | 1.5062 | 1.171
313.15 K, x1 = 0.8981 | 1042.8 | 1.5085 | 1.29
313.15 K, x1 = 0.9485 | 1046.7 | 1.5101 | 1.351
